Values joined by “and” are separate entries in the source; they are usually repeats but may differ in a detail not shown here. Equal values may be shown once.
What was measured:
MsmCoaBC = MsmCoaBC (Mycolicibacterium smegmatis, UniProt A0QWT2); assay: EnzChek pyrophosphate assay, CoaB activity of MsmCoaBC; assay type: biochemical, Mycobacterium smegmatis; settings: for Activity: slope of absorbance at 360 nm vs time (s); for inhibition, IC50 MsmCoaBC 2b / reaction rate (slope of absorbance at 360 nm over time), IC50 MsmCoaBC 2b / remaining activity relative to control, IC50 MsmCoaBC 2b: triplicate
Procedure: The commercially available EnzChek pyrophosphate assay kit (E-6645) (Life Technologies) was used for this assay. […] In the assays with HCoaB an enzyme concentration of 1 µM was used instead. […] Assays were performed on either a CLARIOstar or PHERAstar microplate reader (BMG Labtech) in 96-well plates (Greiner). A substrate mixture containing the substrates and the inhibitor was pre-incubated at 25 °C for 10 min. An enzyme solution was prepared and separately pre-incubated at 25 °C for 10 min. The reaction was initiated by the addition of the substrates to the solution containing the enzyme to a final volume of 75 µL. Enzymatic activity was monitored by following the absorbance at 360 nm for 30 min (100 cycles/20 s each cycle) and only the steady-state region of the assay was used for data analysis. Assays were performed in triplicates, including a negative control (lacking PPA) and a positive control (lacking inhibitor).

MtbCoaBC [1] = target: T1, MtbCoaBC (Mycobacterium tuberculosis, UniProt P9WNZ1); assay: CMP quantification assay (UPLC), second half of CoaB reaction, variable L-cysteine; assay type: biochemical; settings: for uM CMP/uM protein.s-1 (rate of CMP formation): MtbCoaBC 32nM, replicates R1-R3
human CoaB (HCoaB) = human CoaB (HCoaB) (Homo sapiens, UniProt Q9HAB8); assay: EnzChek pyrophosphate assay, HCoaB; assay type: biochemical
MtbCoaBC [2] = target: T1, MtbCoaBC; assay: High-throughput end-point pyrophosphate quantification assay (Biomol Green); assay type: biochemical; settings: MtbCoaB activity; end-point, 2 µM CTP, 40 µM L-cysteine, 30 µM PPA; read-out: IC50 biomol green assay
[3] = 0.015625 uM 2b, replicates R1-R3
[4] = 0.03125 uM 2b, relative to average DMSO CT, replicates R1-R3
[5] = 0.03125 uM 2b, replicates R1-R3
[6] = 0.0625 uM 2b, relative to average DMSO CT, replicates R1-R3
[7] = 0.25 uM 2b, relative to average DMSO CT, replicates R1-R3
[8] = 0.5 uM 2b, relative to average DMSO CT, replicates R1-R3
[9] = inhibitor concentration 1 (log 0; unit not given)
[10] = inhibitor concentration 2 (log 0.30103; unit not given)

T1 sequence (P9WNZ1 whole entry): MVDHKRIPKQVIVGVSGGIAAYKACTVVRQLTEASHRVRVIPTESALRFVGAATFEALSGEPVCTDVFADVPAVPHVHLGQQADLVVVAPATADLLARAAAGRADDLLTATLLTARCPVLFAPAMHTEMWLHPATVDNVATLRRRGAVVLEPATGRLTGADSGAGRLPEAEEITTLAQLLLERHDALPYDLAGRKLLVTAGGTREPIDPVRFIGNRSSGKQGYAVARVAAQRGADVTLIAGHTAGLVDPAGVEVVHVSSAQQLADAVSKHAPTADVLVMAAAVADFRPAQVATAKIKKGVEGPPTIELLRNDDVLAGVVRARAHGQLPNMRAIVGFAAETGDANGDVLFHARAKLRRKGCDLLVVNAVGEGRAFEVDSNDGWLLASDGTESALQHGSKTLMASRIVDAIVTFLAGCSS
Chain of MsmCoaBC (A0QWT2 whole entry): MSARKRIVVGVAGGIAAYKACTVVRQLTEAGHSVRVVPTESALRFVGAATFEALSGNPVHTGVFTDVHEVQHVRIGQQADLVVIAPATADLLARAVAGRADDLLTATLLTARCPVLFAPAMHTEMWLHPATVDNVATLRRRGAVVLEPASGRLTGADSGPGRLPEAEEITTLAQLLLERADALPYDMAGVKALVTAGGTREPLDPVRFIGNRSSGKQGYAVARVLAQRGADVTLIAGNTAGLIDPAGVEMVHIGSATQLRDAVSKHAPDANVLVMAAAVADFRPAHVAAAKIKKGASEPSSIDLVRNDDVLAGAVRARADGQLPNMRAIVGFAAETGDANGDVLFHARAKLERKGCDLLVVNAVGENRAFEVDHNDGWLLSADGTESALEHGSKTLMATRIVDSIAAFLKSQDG
Chain of human CoaB (HCoaB) (Q9HAB8 whole entry): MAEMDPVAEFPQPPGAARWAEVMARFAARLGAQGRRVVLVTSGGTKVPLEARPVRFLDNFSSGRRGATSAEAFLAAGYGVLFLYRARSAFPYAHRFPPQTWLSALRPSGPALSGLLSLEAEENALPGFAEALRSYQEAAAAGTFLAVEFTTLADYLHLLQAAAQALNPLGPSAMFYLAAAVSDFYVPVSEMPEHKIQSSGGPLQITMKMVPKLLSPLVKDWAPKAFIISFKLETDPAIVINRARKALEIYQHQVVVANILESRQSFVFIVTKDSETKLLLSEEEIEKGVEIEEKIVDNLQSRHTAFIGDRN

O=c1cc(-c2ccc(O)c(O)c2)oc2cc(O)c(O)cc12 [compound 2b]
Inhibition % (MsmCoaBC; [3]): 5.72% and 4.75% | inhibition at 0.015625 µM (MsmCoaBC; [3]): 5.65% | Activity (MsmCoaBC; [3]): 0.0002955 and 0.0002927 and 0.0002925 | Activity % (MsmCoaBC; [4]): 88.08% and 86.2% | activity at 0.03125 µM (MsmCoaBC; [4]): 89.5% | Inhibition % (MsmCoaBC; [5]): 13.80% and 10.50% | inhibition at 0.03125 µM (MsmCoaBC; [5]): 11.9% | Activity (MsmCoaBC; [5]): 0.0002776 and 0.0002732 and 0.0002674 | Activity % (MsmCoaBC; [6]): 71.12% and 70.67% | activity at 0.0625 µM (MsmCoaBC; [6]): 74.4% | Inhibition % (MsmCoaBC; 0.0625 uM 2b, replicates R1-R3): 29.33% and 25.59% | inhibition at 0.0625 µM (MsmCoaBC; 0.0625 uM 2b, replicates R1-R3): 28.9% | Activity (MsmCoaBC; 0.0625 uM 2b, replicates R1-R3): 0.0002308 and 0.0002206 and 0.0002192 | Activity % (MsmCoaBC; [7]): 41.76% and 47.03% | activity at 0.25 µM (MsmCoaBC; [7]): 45.6% | Inhibition % (MsmCoaBC; 0.25 uM 2b, replicates R1-R3): 52.97% and 54.45% | inhibition at 0.25 µM (MsmCoaBC; 0.25 uM 2b, replicates R1-R3): 58.2% | Activity (MsmCoaBC; 0.25 uM 2b, replicates R1-R3): 0.0001413 and 0.0001296 and 0.0001459 | Activity % (MsmCoaBC; [8]): 29.05% and 29.76% | activity at 0.5 µM (MsmCoaBC; [8]): 30.5% | Inhibition % (MsmCoaBC; 0.5 uM 2b, replicates R1-R3): 70.24% and 69.54% | inhibition at 0.5 µM (MsmCoaBC; 0.5 uM 2b, replicates R1-R3): 71% | Activity (MsmCoaBC; 0.5 uM 2b, replicates R1-R3): 0.000094507 and 0.000090122 and 0.000092326 | inhibition, IC50 MsmCoaBC 2b (MsmCoaBC; [9]): 88.05 and 84.53 and 91.37 | reaction rate (slope of absorbance at 360 nm over time), IC50 MsmCoaBC 2b (MsmCoaBC; [9]): 0.000026783 and 0.000037077 and 0.000047977 | remaining activity relative to control, IC50 MsmCoaBC 2b (MsmCoaBC; [9]): 8.633 and 11.95 and 15.47 | inhibition, IC50 MsmCoaBC 2b (MsmCoaBC; [10]): 96.00 and 96.49 and 94.20 | reaction rate (slope of absorbance at 360 nm over time), IC50 MsmCoaBC 2b (MsmCoaBC; [10]): 0.000017982 and 0.000012403 and 0.000010882 | remaining activity relative to control, IC50 MsmCoaBC 2b (MsmCoaBC; [10]): 5.796 and 3.998 and 3.508 | uM CMP/uM protein.s-1 (rate of CMP formation) (MtbCoaBC [1]; 0.03125uM 2b, 31.25 uM cysteine): 0.1688 uM CMP/uM protein.s-1 and 0.1774 uM CMP/uM protein.s-1 and 0.1722 uM CMP/uM protein.s-1 | uM CMP/uM protein.s-1 (rate of CMP formation) (MtbCoaBC [1]; 0.03125uM 2b, 62.5 uM cysteine): 0.2177 uM CMP/uM protein.s-1 and 0.2245 uM CMP/uM protein.s-1 and 0.2185 uM CMP/uM protein.s-1 | uM CMP/uM protein.s-1 (rate of CMP formation) (MtbCoaBC [1]; 0.03125uM 2b, 250 uM cysteine): 0.2696 uM CMP/uM protein.s-1 and 0.2689 uM CMP/uM protein.s-1 and 0.2761 uM CMP/uM protein.s-1 | uM CMP/uM protein.s-1 (rate of CMP formation) (MtbCoaBC [1]; 0.03125uM 2b, 500 uM cysteine): 0.3036 uM CMP/uM protein.s-1 and 0.2988 uM CMP/uM protein.s-1 and 0.3158 uM CMP/uM protein.s-1 | uM CMP/uM protein.s-1 (rate of CMP formation) (MtbCoaBC [1]; 0.0625uM 2b, 31.25 uM cysteine): 0.139 uM CMP/uM protein.s-1 and 0.1432 uM CMP/uM protein.s-1 and 0.1461 uM CMP/uM protein.s-1 | uM CMP/uM protein.s-1 (rate of CMP formation) (MtbCoaBC [1]; 0.0625uM 2b, 62.5 uM cysteine): 0.1762 uM CMP/uM protein.s-1 and 0.1605 uM CMP/uM protein.s-1 and 0.1802 uM CMP/uM protein.s-1 | uM CMP/uM protein.s-1 (rate of CMP formation) (MtbCoaBC [1]; 0.0625uM 2b, 250 uM cysteine): 0.2128 uM CMP/uM protein.s-1 and 0.2019 uM CMP/uM protein.s-1 and 0.2135 uM CMP/uM protein.s-1 | uM CMP/uM protein.s-1 (rate of CMP formation) (MtbCoaBC [1]; 0.0625uM 2b, 500 uM cysteine): 0.2223 uM CMP/uM protein.s-1 and 0.2126 uM CMP/uM protein.s-1 and 0.2324 uM CMP/uM protein.s-1 | mode of inhibition (MtbCoaBC [1]; relative to L-cysteine, in words): uncompetitive inhibition | IC50 (human CoaB (HCoaB); 1 µM enzyme, average of three independent experiments ± SD): 60 ± 7 µM | activity at 3.125 µM (human CoaB (HCoaB); 3.125 uM compound, HCoaB, relative to average DMSO CT, replicates R1-R3): 96.1% | Activity % (human CoaB (HCoaB); 3.125 uM compound, HCoaB, relative to average DMSO CT, replicates R1-R3, 3.125 µM): 99.35% and 93.21% | Inhibition % (human CoaB (HCoaB); 3.125 uM compound, HCoaB, replicates R1-R3, 3.125 µM): 0.65% and 6.79% and 3.88% | activity at 6.25 µM (human CoaB (HCoaB); 6.25 uM compound, HCoaB, relative to average DMSO CT, replicates R1-R3): 97.4% | Activity % (human CoaB (HCoaB); 6.25 uM compound, HCoaB, relative to average DMSO CT, replicates R1-R3, 6.25 µM): 94.68% and 99.68% | Inhibition % (human CoaB (HCoaB); 6.25 uM compound, HCoaB, replicates R1-R3, 6.25 µM): 5.32% and 0.32% and 2.58% | activity at 25 µM (human CoaB (HCoaB); 25 uM compound, HCoaB, relative to average DMSO CT, replicates R1-R3): 66.3% | Activity % (human CoaB (HCoaB); 25 uM compound, HCoaB, relative to average DMSO CT, replicates R1-R3, 25 µM): 70.2% and 69.67% | inhibition at 25 µM (human CoaB (HCoaB); 25 uM compound, HCoaB, replicates R1-R3): 29.8% | Inhibition % (human CoaB (HCoaB); 25 uM compound, HCoaB, replicates R1-R3, 25 µM): 30.33% and 33.67% | activity at 50 µM (human CoaB (HCoaB); 50 uM compound, HCoaB, relative to average DMSO CT, replicates R1-R3): 59% | Activity % (human CoaB (HCoaB); 50 uM compound, HCoaB, relative to average DMSO CT, replicates R1-R3, 50 µM): 54.55% and 56.86% | inhibition at 50 µM (human CoaB (HCoaB); 50 uM compound, HCoaB, replicates R1-R3): 45.5% | Inhibition % (human CoaB (HCoaB); 50 uM compound, HCoaB, replicates R1-R3, 50 µM): 43.14% and 41.04% | activity at 100 µM (human CoaB (HCoaB); 100 uM compound, HCoaB, relative to average DMSO CT, replicates R1-R3): 38% | Activity % (human CoaB (HCoaB); 100 uM compound, HCoaB, relative to average DMSO CT, replicates R1-R3, 100 µM): 40.03% and 34.07% | inhibition at 100 µM (human CoaB (HCoaB); 100 uM compound, HCoaB, replicates R1-R3): 60% | Inhibition % (human CoaB (HCoaB); 100 uM compound, HCoaB, replicates R1-R3, 100 µM): 65.93% and 62.02% | IC50 (MtbCoaBC [2]): 0.1 µM

— publication PMC7794376 (Nature Communications, 2021)
